We go through 14 compounds from patent publication US10953027B2, “Active agents and methods of their use for the treatment of metabolic disorders and nonalcoholic fatty liver disease” (Flagship Pioneering Innovations V, Inc., priority 2018, dated 2021).

Assay type in all cases: in vitro ADME
A short description of data set [1]: Assay 1. Stability in Simulated Gastric Fluid (SGF). As to conditions: 1 μM, 37° C., SGF pH 1.6 with pepsin. In outline:
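Simulated gastric fluid, prepared fresh as NaCl buffer at pH 1.6 with 0.1 mg/mL pepsin and FaSSIF powder, received test compound to 1 μM final and was held at 37 °C. LC/MS of acetonitrile-quenched samples, taken immediately and then periodically, gave degradation rates.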

The nature of data set [2]: Assay 2. Stability in Simulated Intestinal Fluid (SIF). As to conditions: 1 μM, 37° C., SIF pH 6.7 with pancreatin. In outline:
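Degradation rate measured by LC/MS after acetonitrile quench of timed aliquots, starting at T0. Test compound 1 μM in simulated intestinal fluid (pH 6.7 phosphate buffer, FaSSIF powder, pancreatin), shaken at 37 °C.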

Data set [3] in a line: Assay 3. Fecal Incubation Stability. As to conditions: 1 or 10 μM, human fecal slurry, anaerobic. How it is done: Assay 3. Fecal Incubation Stability. This assay was used to assess the stability of an acylated active agent in a large intestine. All experiments were performed in an anaerobic chamber containing 90% nitrogen, 5% hydrogen and 5% carbon dioxide. Human fecal matter in a slurry (15% WV) is added to 96 well plates containing YCFA media or other suitable media (1.6 mL). Compounds were added to each individual well to reach a final analyte concentration of 1 or 10 μM, and the material was mixed by pipetting. At set time points a sample was removed, quenched with acetonitrile, and analyzed by LC/MS.

For the compound `CCC(=O)O[C@H]1[C@H](OC)OC[C@@H](OC(=O)CC)[C@H]1OC(=O)CC` [Compound 84, (2R,3R,4R,5R)-2-methoxy-3,5-bis(propanoyloxy)oxan-4-yl Propanoate], the “Assay 1 (SGF) (% Remaining @ 1 hours)” value in data set [1] is recorded as “C (C: >75% of the tested compound remaining)”. The “Assay 2 (SIF) (% @ Remaining 4 hours)” value in data set [2] is on record as “C (C: >75% of the tested compound remaining)”. Further, the “Assay 3 (% Remaining at 24 h)” value in data set [3] is given as “B (B: 25-75% of the tested compound remaining)”.
As for `CCCC(=O)O[C@@H]1[C@@H](OC(=O)CCC)[C@@H](OC)OC[C@@H]1OC(=O)CCC` [Compound 85, (2S,3R,4S,5S)-3,5-bis(butanoyloxy)-2-methoxyoxan-4-yl Butanoate], the “Assay 1 (SGF) (% Remaining @ 1 hours)” value in data set [1] is “B (B: 25-75% of the tested compound remaining)”. Further, the “Assay 2 (SIF) (% @ Remaining 4 hours)” value in data set [2] was “B (B: 25-75% of the tested compound remaining)”. Further, the “Assay 3 (% Remaining at 24 h)” value in data set [3] is “B (B: 25-75% of the tested compound remaining)”.
Take `CCC(=O)O[C@@H]1[C@@H](OC(=O)CC)[C@@H](OC)OC[C@@H]1OC(=O)CC` [Compound 86, (2S,3R,4S,5S)-2-methoxy-3,5-bis(propanoyloxy)oxan-4-yl Propanoate]: in data set [1], the “Assay 1 (SGF) (% Remaining @ 1 hours)” value is given as “C (C: >75% of the tested compound remaining)”. In data set [2], the “Assay 2 (SIF) (% @ Remaining 4 hours)” value is listed as “B (B: 25-75% of the tested compound remaining)”. Further, in data set [3], the “Assay 3 (% Remaining at 24 h)” value is “C (C: >75% of the tested compound remaining)”.
On to `CCCC(=O)OC[C@H]1O[C@H](OC)[C@H](OC(=O)CCC)[C@@H](OC(=O)CCC)[C@@H]1OC(=O)CCC` [Compound 87, [(2R,3R,4S,5R,6S)-3,4,5-tris(butanoyloxy)-6-methoxyoxan-2-yl]methyl Butanoate], for which the “Assay 1 (SGF) (% Remaining @ 1 hours)” value in data set [1] is “B (B: 25-75% of the tested compound remaining)”. Also, the “Assay 2 (SIF) (% @ Remaining 4 hours)” value in data set [2] is listed as “A (A: <25% of the tested compound remaining)”. Also, the “Assay 3 (% Remaining at 24 h)” value in data set [3] is on record as “A (A: <25% of the tested compound remaining)”.
As for `CCC(=O)OC[C@H]1O[C@H](OC)[C@H](OC(=O)CC)[C@@H](OC(=O)CC)[C@@H]1OC(=O)CC` [Compound 88, [(2R,3R,4S,5R,6S)-6-methoxy-3,4,5-tris(propanoyloxy)oxan-2-yl]methyl Propanoate], the “Assay 1 (SGF) (% Remaining @ 1 hours)” value in data set [1] is reported as “C (C: >75% of the tested compound remaining)”. In addition, the “Assay 2 (SIF) (% @ Remaining 4 hours)” value in data set [2] is listed as “A (A: <25% of the tested compound remaining)”. Besides, in data set [3], the “Assay 3 (% Remaining at 24 h)” value is on record as “A (A: <25% of the tested compound remaining)”.
With `CCC(=O)OC[C@H]1O[C@H](OC)[C@H](OC(=O)CC)[C@@H](OC(=O)CC)[C@H]1OC(=O)CC` [Compound 90, [(2R,3S,4S,5R,6S)-6-methoxy-3,4,5-tris(propanoyloxy)oxan-2-yl]methyl Propanoate], in data set [1], the “Assay 1 (SGF) (% Remaining @ 1 hours)” value is given as “C (C: >75% of the tested compound remaining)”. In addition, the “Assay 2 (SIF) (% @ Remaining 4 hours)” value in data set [2] is on record as “A (A: <25% of the tested compound remaining)”. For the same compound, in data set [3], the “Assay 3 (% Remaining at 24 h)” value is listed as “A (A: <25% of the tested compound remaining)”.
With `C[C@@H]1OC(O)[C@@H](OC(=O)CCc2c[nH]c3ccccc23)[C@H](OC(=O)CCc2c[nH]c3ccccc23)[C@@H]1OC(=O)CCc1c[nH]c2ccccc12` (stereo partly drawn) [Compound 95, (2S,3R,4R,5S)-6-hydroxy-4,5-bis({[3-(1H-indol-3-yl)propanoyl]oxy})-2-methyloxan-3-yl 3-(1H-indol-3-yl)propanoate], the “Assay 1 (SGF) (% Remaining @ 1 hours)” value in data set [1] is listed as “C (C: >75% of the tested compound remaining)”. For the same compound, the “Assay 2 (SIF) (% @ Remaining 4 hours)” value in data set [2] is reported as “A (A: <25% of the tested compound remaining)”. In addition, the “Assay 3 (% Remaining at 24 h)” value in data set [3] was “C (C: >75% of the tested compound remaining)”.
For the compound `CCC(=O)O[C@@H]1[C@H](OC)OC[C@@H](OC(=O)CC)[C@H]1OC(=O)CC` [Compound 101, (2R,3S,4R,5R)-2-methoxy-3,5-bis(propanoyloxy)oxan-4-yl Propanoate], in data set [1], the “Assay 1 (SGF) (% Remaining @ 1 hours)” value is given as “C (C: >75% of the tested compound remaining)”. Further, in data set [2], the “Assay 2 (SIF) (% @ Remaining 4 hours)” value is reported as “A (A: <25% of the tested compound remaining)”. Also, in data set [3], the “Assay 3 (% Remaining at 24 h)” value was “B (B: 25-75% of the tested compound remaining)”.
For `O=C(CCc1c[nH]c2ccccc12)O[C@@H]1OC[C@H](OC(=O)CCc2c[nH]c3ccccc23)[C@H](OC(=O)CCc2c[nH]c3ccccc23)[C@H]1OC(=O)CCc1c[nH]c2ccccc12` [Compound 102, (2S,3R,4S,5S)-3,4,5-tris({[3-(1H-indol-3-yl)propanoyl]oxy})oxan-2-yl 3-(1H-indol-3-yl)propanoate] the same measures were “B (B: 25-75% of the tested compound remaining)”, “A (A: <25% of the tested compound remaining)” and “A (A: <25% of the tested compound remaining)”.
For `CCCC(=O)O[C@@H]1[C@@H](OC(=O)CCC)[C@@H](OC)OC[C@H]1OC(=O)CCC` [Compound 104, (2S,3R,4S,5R)-4,5-bis(butanoyloxy)-2-methoxyoxan-3-yl Butanoate] the same measures were “B (B: 25-75% of the tested compound remaining)”, “A (A: <25% of the tested compound remaining)” and “A (A: <25% of the tested compound remaining)”.
For `CCC(=O)O[C@@H]1[C@@H](OC(=O)CC)[C@@H](OC)OC[C@H]1OC(=O)CC` [Compound 105, (2S,3R,4S,5R)-2-methoxy-4,5-bis(propanoyloxy)oxan-3-yl Propanoate] the same measures were “C (C: >75% of the tested compound remaining)”, “B (B: 25-75% of the tested compound remaining)” and “A (A: <25% of the tested compound remaining)”.
As to `CCC(=O)O[C@@H]1[C@@H](OC(=O)CC)[C@H](OC)OC[C@H]1OC(=O)CC` [Compound 106, (2R,3R,4S,5R)-2-methoxy-4,5-bis(propanoyloxyoxan-3-yl Propanoate], in data set [1], the “Assay 1 (SGF) (% Remaining @ 1 hours)” value was “C (C: >75% of the tested compound remaining)”. Moreover, the “Assay 2 (SIF) (% @ Remaining 4 hours)” value in data set [2] is listed as “A (A: <25% of the tested compound remaining)”. The “Assay 3 (% Remaining at 24 h)” value in data set [3] is on record as “A (A: <25% of the tested compound remaining)”.
Regarding `CCC(=O)O[C@@H]1[C@@H](OC(=O)CC)[C@H](OC(=O)CCc2c[nH]c3ccccc23)OC[C@@H]1OC(=O)CC` [Compound 107, (2S,3R,4S,5S)-3,4,5-tris(propanoyloxy)oxan-2-yl 3-(1H-indol-3-yl)propanoate], in data set [1], the “Assay 1 (SGF) (% Remaining @ 1 hours)” value was “C (C: >75% of the tested compound remaining)”. Further, in data set [2], the “Assay 2 (SIF) (% @ Remaining 4 hours)” value is given as “A (A: <25% of the tested compound remaining)”. The “Assay 3 (% Remaining at 24 h)” value in data set [3] is reported as “A (A: <25% of the tested compound remaining)”.
Turning to `CCC(=O)O[C@@H]1[C@@H](OC(=O)CC)[C@H](OC(=O)Cc2c[nH]c3ccccc23)OC[C@H]1OC(=O)CC` [Compound 109, (2S,3R,4S,5R)-2-{[2-(1H-indol-3-yl)acetyl]oxy}-4,5-bis(propanoyloxy)oxan-3-yl Propanoate], in data set [1], the “Assay 1 (SGF) (% Remaining @ 1 hours)” value is “C (C: >75% of the tested compound remaining)”. Besides, the “Assay 2 (SIF) (% @ Remaining 4 hours)” value in data set [2] was “A (A: <25% of the tested compound remaining)”. In data set [3], the “Assay 3 (% Remaining at 24 h)” value is on record as “A (A: <25% of the tested compound remaining)”.
